Biological target: PD-1/PD-L1 (Homo sapiens (Human), UniProt Q9NZQ7)
Assay: PD-1/PD-L1 Homogeneous Time-Resolved Fluorescence (HTRF) Binding Assay
Settings: recombinant human PD-1 (3 nM) and PD-L1 (10 nM), 25° C., PBS pH 7.4
Summary of the method: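 Fc-tagged human PD-1 (25-167, 3 nM) and His-tagged PD-L1 (19-238, 10 nM) preincubated with inhibitor 40 min in PBS pH 7.4, 0.05% Tween-20, 0.1% BSA, 1% DMSO, 25 °C. Binding detected by HTRF (Eu anti-IgG/APC anti-His, 665/620 nm) after 60 min; IC50 from percent control activity.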

Sequence of PD-1/PD-L1 (Q9NZQ7 19-238): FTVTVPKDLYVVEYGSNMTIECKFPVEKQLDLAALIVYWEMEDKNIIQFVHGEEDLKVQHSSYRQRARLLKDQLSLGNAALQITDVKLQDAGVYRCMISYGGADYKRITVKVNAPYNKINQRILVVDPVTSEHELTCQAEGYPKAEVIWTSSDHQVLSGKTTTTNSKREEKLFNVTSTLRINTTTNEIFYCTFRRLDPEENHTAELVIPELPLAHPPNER

| Structure (SMILES) | IC50 |
| --- | --- |
| Cc1c(-c2nc3cc(CN4CC[C@@H](C(=O)O)C4)cc(C#N)c3o2)cccc1-c1cccc(-c2nc3c(s2)CN(C(=O)CNC(C)C)C3)c1C [Example 110, (R)-1-((7-cyano-2-(3′-(5-(2-(isopropylamino)acetyl)-5,6-dihydro-4H-pyrrolo[3,4-d]thiazol-2-yl)-2,2′-dimethylbiphenyl-3-yl)benzo[d]oxazol-5-yl)methyl)pyrrolidine-3-carboxylic acid] | ≤ 10 nM |
| Cc1c(-c2nc3cc(CN4CC[C@@H](C(=O)O)C4)cc(C#N)c3o2)cccc1-c1cccc(-c2nc3c(s2)CN(C(=O)CN2CC[C@H](O)C2)C3)c1C [Example 112, (R)-1-((7-cyano-2-(3′-(5-(2-((S)-3-hydroxypyrrolidin-1-yl)acetyl)-5,6-dihydro-4H-pyrrolo[3,4-d]thiazol-2-yl)-2,2′-dimethylbiphenyl-3-yl)benzo[d]oxazol-5-yl)methyl)pyrrolidine-3-carboxylic acid] | ≤ 10 nM |
| Cc1c(-c2nc3cc(CN4CC[C@@H](C(=O)O)C4)cc(C#N)c3o2)cccc1-c1cccc(-c2nc3c(s2)CN(C(=O)CN2CCC2)C3)c1C [Example 113, (R)-1-((2-(3′-(5-(2-(azetidin-1-yl)acetyl)-5,6-dihydro-4H-pyrrolo[3,4-d]thiazol-2-yl)-2,2′-dimethylbiphenyl-3-yl)-7-cyanobenzo[d]oxazol-5-yl)methyl)pyrrolidine-3-carboxylic acid] | ≤ 10 nM |
| CCN(C)CC(=O)N1Cc2nc(-c3cccc(-c4cccc(-c5nc6cc(CN7CC[C@@H](C(=O)O)C7)cc(C#N)c6o5)c4C)c3C)sc2C1 [Example 114, (R)-1-((7-cyano-2-(3′-(5-(2-(ethyl(methyl)amino)acetyl)-5,6-dihydro-4H-pyrrolo[3,4-d]thiazol-2-yl)-2,2′-dimethylbiphenyl-3-yl)benzo[d]oxazol-5-yl)methyl)pyrrolidine-3-carboxylic acid] | ≤ 10 nM |
| Cc1c(-c2nc3cc(CN4CC[C@@H](C(=O)O)C4)cc(C#N)c3o2)cccc1-c1cccc(-c2nc3c(s2)CN(C(=O)CN2CC[C@](C)(O)C2)C3)c1C [Example 115, (R)-1-((7-cyano-2-(3′-(5-(2-((S)-3-hydroxy-3-methylpyrrolidin-1-yl)acetyl)-5,6-dihydro-4H-pyrrolo[3,4-d]thiazol-2-yl)-2,2′-dimethylbiphenyl-3-yl)benzo[d]oxazol-5-yl)methyl)pyrrolidine-3-carboxylic acid] | ≤ 10 nM |
| Cc1c(-c2nc3cc(CN4CC[C@@H](C(=O)NCCO)C4)cc(C#N)c3o2)cccc1-c1cccc(-c2nc3c(s2)CN(C(C)C)CC3)c1C [Example 119, (R)-1-((7-cyano-2-(3′-(5-isopropyl-4,5,6,7-tetrahydrothiazolo[5,4-c]pyridin-2-yl)-2,2′-dimethyl-[1,1′-biphenyl]-3-yl)benzo[d]oxazol-5-yl)methyl)-N-(2-hydroxyethyl)pyrrolidine-3-carboxamide] | ≤ 10 nM |
| Cc1c(-c2nc3cc(CNCCO)cc(C#N)c3o2)cccc1-c1cccc(-c2nc3c(s2)CN(C(C)C)CC3)c1C [Example 120, 5-(((2-hydroxyethyl)amino)methyl)-2-(3′-(5-isopropyl-4,5,6,7-tetrahydrothiazolo[5,4-c]pyridin-2-yl)-2,2′-dimethyl-[1,1′-biphenyl]-3-yl)benzo[d]oxazole-7-carbonitrile] | ≤ 10 nM |
| Cc1c(-c2nc3cc(CN4CC[C@@H](O)C4)cc(C#N)c3o2)cccc1-c1cccc(-c2nc3c(s2)CN(C(C)C)CC3)c1C [Example 121, (R)-5-((3-hydroxypyrrolidin-1-yl)methyl)-2-(3′-(5-isopropyl-4,5,6,7-tetrahydrothiazolo[5,4-c]pyridin-2-yl)-2,2′-dimethyl-[1,1′-biphenyl]-3-yl)benzo[d]oxazole-7-carbonitrile] | ≤ 10 nM |
| Cc1c(-c2nc3c(o2)CN(C(=O)CN(C)C)C3)cccc1-c1cccc(-c2nc3cc(CN4CC[C@@H](C(=O)O)C4)cc(C#N)c3o2)c1C [Example 122, (R)-1-((7-cyano-2-(3′-(5-(dimethylglycyl)-5,6-dihydro-4H-pyrrolo[3,4-d]oxazol-2-yl)-2,2′-dimethyl-[1,1′-biphenyl]-3-yl)benzo[d]oxazol-5-yl)methyl)pyrrolidine-3-carboxylic acid] | ≤ 10 nM |
| Cc1c(-c2nc3c(o2)CN(C(=O)CN(C)C)C3)cccc1-c1cccc(-c2nc3cc(CN4CC(C(=O)O)C4)cc(C#N)c3o2)c1C [Example 123, 1-((7-cyano-2-(3′-(5-(dimethylglycyl)-5,6-dihydro-4H-pyrrolo[3,4-d]oxazol-2-yl)-2,2′-dimethyl-[1,1′-biphenyl]-3-yl)benzo[d]oxazol-5-yl)methyl)azetidine-3-carboxylic acid] | ≤ 10 nM |

Now from value to compound:

| IC50 | Structure (SMILES) |
| --- | --- |
| ≤ 10 nM | Cc1c(-c2nc3cc(CN4CC[C@@H](C(=O)O)C4)cc(C#N)c3o2)cccc1-c1cccc(-c2nc3c(s2)CN(C(=O)CN(C)C)C3)c1C [Example 105, (R)-1-((7-cyano-2-(3′-(5-(2-(dimethylamino)acetyl)-5,6-dihydro-4H-pyrrolo[3,4-d]thiazol-2-yl)-2,2′-dimethylbiphenyl-3-yl)benzo[d]oxazol-5-yl)methyl)pyrrolidine-3-carboxylic acid] |
| ≤ 10 nM | Cc1c(-c2nc3cc(CN4CC[C@@H](C(=O)O)C4)cc(C#N)c3o2)cccc1-c1cccc(-c2nc3c(s2)CN(C(=O)CCN(C)C)C3)c1C [Example 106, (R)-1-((7-cyano-2-(3′-(5-(3-(dimethylamino)propanoyl)-5,6-dihydro-4H-pyrrolo[3,4-d]thiazol-2-yl)-2,2′-dimethylbiphenyl-3-yl)benzo[d]oxazol-5-yl)methyl)pyrrolidine-3-carboxylic acid] |
| ≤ 10 nM | Cc1c(-c2nc3cc(CN4CC[C@@H](C(=O)O)C4)cc(C#N)c3o2)cccc1-c1cccc(-c2nc3c(s2)CN(C(=O)[C@@H]2CCCN2C)C3)c1C [Example 107, (R)-1-((7-cyano-2-(2,2′-dimethyl-3′-(5-((8)-1-methylpyrrolidine-2-carbonyl)-5,6-dihydro-4H-pyrrolo[3,4-d]thiazol-2-yl)biphenyl-3-yl)benzo[d]oxazol-5-yl)methyl)pyrrolidine-3-carboxylic acid] |
| ≤ 10 nM | Cc1c(-c2nc3cc(CN4CC[C@@H](C(=O)O)C4)cc(C#N)c3o2)cccc1-c1cccc(-c2nc3c(s2)CN(C(=O)CN2CCN(C)CC2)C3)c1C [Example 108, (R)-1-((7-cyano-2-(2,2′-dimethyl-3′-(5-(2-(4-methylpiperazin-1-yl)acetyl)-5,6-dihydro-4H-pyrrolo[3,4-d]thiazol-2-yl)biphenyl-3-yl)benzo[d]oxazol-5-yl)methyl)pyrrolidine-3-carboxylic acid] |
| ≤ 10 nM | Cc1c(-c2nc3cc(CN4CC[C@@](C)(C(=O)O)C4)cc(C#N)c3o2)cccc1-c1cccc(-c2nc3c(s2)CN(C(=O)CN(C)C)C3)c1C [Example 109, (R)-1-((7-cyano-2-(3′-(5-(2-(dimethylamino)acetyl)-5,6-dihydro-4H-pyrrolo[3,4-d]thiazol-2-yl)-2,2′-dimethylbiphenyl-3-yl)benzo[d]oxazol-5-yl)methyl)-3-methylpyrrolidine-3-carboxylic acid] |
| ≤ 10 nM | Cc1c(-c2nc3cc(CN4CC[C@@H](C(=O)O)C4)cc(C#N)c3o2)cccc1-c1cccc(-c2nc3c(s2)CN(C(=O)CN2CC[C@@H](O)C2)C3)c1C [Example 111, (R)-1-((7-cyano-2-(3′-(5-(2-((R)-3-hydroxypyrrolidin-1-yl)acetyl)-5,6-dihydro-4H-pyrrolo[3,4-d]thiazol-2-yl)-2,2′-dimethylbiphenyl-3-yl)benzo[d]oxazol-5-yl)methyl)pyrrolidine-3-carboxylic acid] |
| ≤ 10 nM | Cc1c(-c2nc3cc(CN4CC[C@@H](C(=O)O)C4)cc(C#N)c3o2)cccc1-c1cccc(-c2nc3c(s2)CN(C(=O)CN2CC[C@@](C)(O)C2)C3)c1C [Example 116, (R)-1-((7-cyano-2-(3′-(5-(2-((R)-3-hydroxy-3-methylpyrrolidin-1-yl)acetyl)-5,6-dihydro-4H-pyrrolo[3,4-d]thiazol-2-yl)-2,2′-dimethylbiphenyl-3-yl)benzo[d]oxazol-5-yl)methyl)pyrrolidine-3-carboxylic acid] |
| ≤ 10 nM | CNC(=O)[C@@H]1CCN(Cc2cc(C#N)c3oc(-c4cccc(-c5cccc(-c6nc7c(s6)CN(C(C)C)CC7)c5C)c4C)nc3c2)C1 [Example 117, (R)-1-((7-cyano-2-(3′-(5-isopropyl-4,5,6,7-tetrahydrothiazolo[5,4-c]pyridin-2-yl)-2,2′-dimethyl-[1,1′-biphenyl]-3-yl)benzo[d]oxazol-5-yl)methyl)-N-methylpyrrolidine-3-carboxamide] |
| ≤ 10 nM | CC(=O)NCCNCc1cc(C#N)c2oc(-c3cccc(-c4cccc(-c5nc6c(s5)CN(C(C)C)CC6)c4C)c3C)nc2c1 [Example 118, N-(2-(((7-cyano-2-(3′-(5-isopropyl-4,5,6,7-tetrahydrothiazolo[5,4-c]pyridin-2-yl)-2,2′-dimethyl-[1,1′-biphenyl]-3-yl)benzo[d]oxazol-5-yl)methyl)amino)ethyl)acetamide] |
| ≤ 10 nM | Cc1c(-c2nc3c(o2)CN(C(=O)[C@@H]2CCCN2C)C3)cccc1-c1cccc(-c2nc3cc(CN4CC[C@@H](C(=O)O)C4)cc(C#N)c3o2)c1C [Example 124, (R)-1-((7-cyano-2-(2,2′-dimethyl-3′-(5-(methyl-L-prolyl)-5,6-dihydro-4H-pyrrolo[3,4-d]oxazol-2-yl)-[1,1′-biphenyl]-3-yl)benzo[d]oxazol-5-yl)methyl)pyrrolidine-3-carboxylic acid] |
| ≤ 10 nM | Cc1c(-c2nc3c(o2)CN(C(=O)CCN(C)C)C3)cccc1-c1cccc(-c2nc3cc(CN4CC[C@@H](C(=O)O)C4)cc(C#N)c3o2)c1C [Example 125, (R)-1-((7-cyano-2-(3′-(5-(3-(dimethylamino)propanoyl)-5,6-dihydro-4H-pyrrolo[3,4-d]oxazol-2-yl)-2,2′-dimethyl-[1,1′-biphenyl]-3-yl)benzo[d]oxazol-5-yl)methyl)pyrrolidine-3-carboxylic acid] |

From patent US10308644B2, “Heterocyclic compounds as immunomodulators” (Incyte Corporation, priority 2016, dated 2019)
